Several values for one entry are separate records, joined by “and”; a condition that tells them apart may be missing. Equal values may be shown once. Inconclusive results and toxic doses are left out. Rule for the calls: active = survival T/C of 150% or more; inactive = T/C below 125% in these data.
Tested on: P388 leukemia ip, CD2F1 mice, survival T/C
Experiment: NCI In Vivo Anticancer Drug Screen. Data for tumor model P388 Leukemia (intraperitoneal) in CD2F1 (CDF1) mice
Settings: endpoint: median survival time, higher = longer survival
In short: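 Mice carrying the transplanted tumor received test compound or vehicle. Survival was recorded in each group, and the value is the treated-group measurement divided by that of the vehicle-treated control group.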

[1] = dose: 50.0 mg/kg/injection, schedule: Q01DX005 (ip), vehicle: saline with Tween-80
[2] = dose: 100.0 mg/kg/injection, schedule: Q01DX005 (ip), vehicle: saline with Tween-80
[3] = dose: 50.0 mg/kg/injection, schedule: Q01DX005 (ip), vehicle: Klucel (hydroxypropylcellulose) (HPC)
[4] = dose: 100.0 mg/kg/injection, schedule: Q01DX005 (ip), vehicle: Klucel (hydroxypropylcellulose) (HPC)
[5] = dose: 200.0 mg/kg/injection, schedule: Q01DX005 (ip), vehicle: Klucel (hydroxypropylcellulose) (HPC)
[6] = dose: 12.5 mg/kg/injection, schedule: Q01DX005 (ip), vehicle: Klucel (hydroxypropylcellulose) (HPC)
[7] = dose: 25.0 mg/kg/injection, schedule: Q01DX005 (ip), vehicle: Klucel (hydroxypropylcellulose) (HPC)
[8] = dose: 12.5 mg/kg/injection, schedule: Q01DX009 (ip), vehicle: other
[9] = dose: 25.0 mg/kg/injection, schedule: Q01DX009 (ip), vehicle: other
[10] = dose: 50.0 mg/kg/injection, schedule: Q01DX009 (ip), vehicle: other
[11] = dose: 100.0 mg/kg/injection, schedule: Q01DX009 (ip), vehicle: other
[12] = dose: 200.0 mg/kg/injection, schedule: Q01DX009 (ip), vehicle: other
[13] = dose: 60.0 mg/kg/injection, schedule: Q01DX005 (ip), vehicle: saline with Tween-80
[14] = dose: 120.0 mg/kg/injection, schedule: Q01DX005 (ip), vehicle: saline with Tween-80
[15] = dose: 200.0 mg/kg/injection, schedule: Q01DX005 (ip), vehicle: saline with Tween-80
[16] = dose: 100.0 mg/kg/injection, schedule: Q01DX009 (ip), vehicle: Klucel (hydroxypropylcellulose) (HPC)
[17] = dose: 200.0 mg/kg/injection, schedule: Q01DX009 (ip), vehicle: Klucel (hydroxypropylcellulose) (HPC)
[18] = dose: 100.0 mg/kg/injection, schedule: Q01DX001 (ip), vehicle: saline with Tween-80
[19] = dose: 200.0 mg/kg/injection, schedule: Q01DX001 (ip), vehicle: saline with Tween-80
[20] = dose: 400.0 mg/kg/injection, schedule: Q01DX001 (ip), vehicle: saline with Tween-80

Measured: T/C

CC(=O)OC1C(c2ccc(Cl)cc2)CC2CCC1N2C (configuration not stated)
inactive: [1] 103 % of control | [2] 102 % of control

CC(C)Cc1nccs1
inactive: dose: 25.0 mg/kg/injection, schedule: Q01DX009 (ip), vehicle: saline with Tween-80 105 % of control | dose: 50.0 mg/kg/injection, schedule: Q01DX009 (ip), vehicle: saline with Tween-80 105 % of control and 110 % of control | dose: 100.0 mg/kg/injection, schedule: Q01DX009 (ip), vehicle: saline with Tween-80 106 % of control and 117 % of control | dose: 200.0 mg/kg/injection, schedule: Q01DX009 (ip), vehicle: saline with Tween-80 118 % of control

CCOC1=C(CC)C(=O)c2ccccc2C1=O
inactive: [3] 100 % of control | [4] 100 % of control | [5] 107 % of control

CN1C2C=C(c3ccc(Cl)cc3)CC1CC2 (configuration not stated)
inactive: dose: 6.25 mg/kg/injection, schedule: Q01DX005 (ip), vehicle: Klucel (hydroxypropylcellulose) (HPC) 106 % of control | dose: 6.25 mg/kg/injection, schedule: Q01DX005 (ip), vehicle: saline 103 % of control | [6] 100 % of control | dose: 12.5 mg/kg/injection, schedule: Q01DX005 (ip), vehicle: saline 114 % of control | [7] 109 % of control | dose: 25.0 mg/kg/injection, schedule: Q01DX005 (ip), vehicle: saline 100 % of control

Oc1c[nH]c(=S)s1
inactive: [8] 112 % of control | [9] 106 % of control | [10] 111 % of control | [11] 102 % of control | [12] 117 % of control

N#CC(OC(OC(C#N)c1ccccc1)c1ccccc1)c1ccccc1 (configuration not stated)
inactive: [13] 98 % of control | [14] 94 % of control | dose: 240.0 mg/kg/injection, schedule: Q01DX005 (ip), vehicle: saline with Tween-80 89 % of control

COC(=O)C(CCCCNC(=O)OCc1ccccc1)NC(=O)C(Cc1ccccc1)NC(=O)OC(C)(C)C (configuration not stated)
inactive: [3] 99 % of control | [4] 97 % of control | [5] 99 % of control

CCO[C@H]1c2cc3c(cc2[C@@H](c2cc(OC)c(OC)c(OC)c2)[C@H]2C(=O)OC[C@@H]21)OCO3
inactive: [3] 96 % of control | [4] 112 % of control

O=C1NN2CCN=C2c2cnccc21
inactive: dose: 100.0 mg/kg/injection, schedule: Q04DX002 (ip), vehicle: saline 98 % of control | dose: 200.0 mg/kg/injection, schedule: Q04DX002 (ip), vehicle: saline 93 % of control | dose: 400.0 mg/kg/injection, schedule: Q04DX002 (ip), vehicle: saline 92 % of control

O=C(/C(=C\c1ccc(F)cc1)S(=O)(=O)c1ccc(Br)cc1)c1ccccc1
inactive: [1] 100 % of control | [2] 97 % of control | [15] 95 % of control

c1ccc(C2=NNC(c3ccccn3)=C3CCCCCCC3=N2)nc1
inactive: dose: 5.3 mg/kg/injection, schedule: Q01DX009 (ip), vehicle: water 110 % of control | dose: 8.0 mg/kg/injection, schedule: Q01DX009 (ip), vehicle: water 112 % of control | dose: 12.0 mg/kg/injection, schedule: Q01DX009 (ip), vehicle: water 112 % of control | dose: 18.0 mg/kg/injection, schedule: Q01DX009 (ip), vehicle: water 110 % of control | dose: 25.0 mg/kg/injection, schedule: Q01DX009 (ip), vehicle: water 111 % of control | dose: 50.0 mg/kg/injection, schedule: Q01DX009 (ip), vehicle: water 117 % of control

CC(C)CCCCCCCCCCCCC(=O)NCC(=O)NC1C(C)OC(Nc2ncnc3nc[nH]c23)C(O)C1O (configuration not stated)
inactive: dose: 0.13 mg/kg/injection, schedule: Q01DX009 (ip), vehicle: other 114 % of control | dose: 0.25 mg/kg/injection, schedule: Q01DX009 (ip), vehicle: other 121 % of control | dose: 0.5 mg/kg/injection, schedule: Q01DX009 (ip), vehicle: other 123 % of control | dose: 1.0 mg/kg/injection, schedule: Q01DX009 (oral), vehicle: distilled water + Tween-80 104 % of control | dose: 2.0 mg/kg/injection, schedule: Q01DX009 (oral), vehicle: distilled water + Tween-80 102 % of control | dose: 4.0 mg/kg/injection, schedule: Q01DX009 (ip), vehicle: other 97 % of control | dose: 4.0 mg/kg/injection, schedule: Q01DX009 (oral), vehicle: distilled water + Tween-80 105 % of control | dose: 8.0 mg/kg/injection, schedule: Q01DX009 (oral), vehicle: distilled water + Tween-80 103 % of control | dose: 16.0 mg/kg/injection, schedule: Q01DX009 (oral), vehicle: distilled water + Tween-80 104 % of control
active: dose: 1.0 mg/kg/injection, schedule: Q01DX009 (ip), vehicle: other 157 % of control and 163 % of control

Nc1nc(-c2ccccn2)cc2cc(Cl)ccc12
inactive: [13] 99 % of control | [14] 115 % of control

CC(CO)CCC1OC2CC3C4CC=C5CC(O)CCC5(C)C4CCC3(C)C2C1C (configuration not stated)
inactive: dose: 2.25 mg/kg/injection, schedule: Q01DX005 (ip), vehicle: Klucel (hydroxypropylcellulose) (HPC) 98 % of control | dose: 4.5 mg/kg/injection, schedule: Q01DX005 (ip), vehicle: Klucel (hydroxypropylcellulose) (HPC) 100 % of control | dose: 9.0 mg/kg/injection, schedule: Q01DX005 (ip), vehicle: Klucel (hydroxypropylcellulose) (HPC) 88 % of control | dose: 36.0 mg/kg/injection, schedule: Q01DX005 (ip), vehicle: Klucel (hydroxypropylcellulose) (HPC) 87 % of control

CCOC(=O)COc1ccc(CC)cc1Cc1ccc(OC)cc1
inactive: [1] 97 % of control | [2] 111 % of control | [15] 111 % of control

CN1CCC2CC1c1ccn(C)c1C2=O (configuration not stated)
inactive: dose: 7.5 mg/kg/injection, schedule: Q01DX005 (ip), vehicle: saline 93 % of control | dose: 15.0 mg/kg/injection, schedule: Q01DX005 (ip), vehicle: saline 96 % of control | dose: 30.0 mg/kg/injection, schedule: Q01DX005 (ip), vehicle: saline 106 % of control

Nc1ccc(N2CCSCC2)nc1
inactive: dose: 50.0 mg/kg/injection, schedule: Q01DX009 (ip), vehicle: saline 104 % of control | dose: 100.0 mg/kg/injection, schedule: Q01DX009 (ip), vehicle: saline 101 % of control | dose: 200.0 mg/kg/injection, schedule: Q01DX009 (ip), vehicle: saline 96 % of control

S=C1SCN(C2CCCCC2)CN1C1CCCCC1
inactive: [16] 100 % of control | [17] 105 % of control | dose: 400.0 mg/kg/injection, schedule: Q01DX009 (ip), vehicle: Klucel (hydroxypropylcellulose) (HPC) 107 % of control

CC(C)CCCC(C)C1CCC2C3CCC4CC(OS(C)(=O)=O)CCC4(C)C3CCC12C (configuration not stated)
inactive: dose: 50.0 mg/kg/injection, schedule: Q01DX009 (ip), vehicle: Klucel (hydroxypropylcellulose) (HPC) 96 % of control | [16] 106 % of control | [17] 103 % of control

CC(O)CC1C=CCC(CC(O)c2ccccc2)N1C (configuration not stated)
inactive: [6] 102 % of control | [7] 100 % of control | [3] 105 % of control

COc1ccc(NC(=O)c2cc3c(cc2Br)OCO3)cc1
inactive: [8] 102 % of control | [9] 96 % of control | [10] 100 % of control | [11] 93 % of control | [12] 99 % of control | dose: 400.0 mg/kg/injection, schedule: Q01DX009 (ip), vehicle: other 89 % of control

COc1ccc(C(C)c2cc3c(cc2OCCOC(C)=O)OCO3)cc1 (configuration not stated)
inactive: dose: 100.0 mg/kg/injection, schedule: Q04DX002 (ip), vehicle: saline with Tween-80 103 % of control | dose: 200.0 mg/kg/injection, schedule: Q04DX002 (ip), vehicle: saline with Tween-80 100 % of control | dose: 400.0 mg/kg/injection, schedule: Q04DX002 (ip), vehicle: saline with Tween-80 100 % of control

CCC(c1ccc(OC)cc1)C(NC(=S)Nc1ccc(Br)cc1)c1ccc(OC)cc1 (configuration not stated)
inactive: [18] 96 % of control | [19] 99 % of control | [20] 93 % of control

CN(C)CCC(/C=C/c1ccco1)=N\NC(=S)Nc1ccc(Cl)cc1
inactive: [18] 97 % of control | [19] 101 % of control | [20] 103 % of control

COC(=O)C1C2C=CC(C1C(=O)OC)C1C3C(=O)N(N)C(=O)C3C21 (configuration not stated)
inactive: [1] 100 % of control | [2] 96 % of control | [15] 91 % of control
